Measurements: the supplement of paper PMC10307832

Columns and labels:
Assay in all cases: relative viability (nuclei count vs DMSO), 5 days (fraction); higher = more cells survive
Kobe2602 + Decitabine = compound: C1=CC(=CC=C1NC(=S)NNC2=C(C=C(C=C2[N+](=O)[O-])C(F)(F)F)[N+](=O)[O-])F [Kobe2602] + Nc1ncn([C@H]2C[C@H](O)[C@@H](CO)O2)c(=O)n1 [Decitabine] (partner 2 µM)
Outline: (§1)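 Five library-drug doses in √10 steps were combined with a fixed anchor-drug dose, or a single drug was given alone, by pin tool to lung cancer cell lines in 1536-well plates the day after seeding. Nuclei were stained and counted after 5 days. Relative viability is the nuclei count in treated wells over that in vehicle wells, taken as the median of duplicate plates.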

Cabozantinib + Dasatinib = compound: COc1cc2nccc(Oc3ccc(NC(=O)C4(C(=O)Nc5ccc(F)cc5)CC4)cc3)c2cc1OC [Cabozantinib] + Cc1nc(Nc2ncc(C(=O)Nc3c(C)cccc3Cl)s2)cc(N2CCN(CCO)CC2)n1 [Dasatinib] (partner 0.075 µM)
Outline: as §1

Zosuquidar + Trametinib = compound: O[C@@H](COc1cccc2ncccc12)CN1CCN([C@@H]2c3ccccc3[C@@H]3[C@H](c4ccccc42)C3(F)F)CC1 [Zosuquidar] + CC(=O)Nc1cccc(-n2c(=O)n(C3CC3)c(=O)c3c(Nc4ccc(I)cc4F)n(C)c(=O)c(C)c32)c1 [Trametinib] (partner 0.02 µM)
Outline: as §1

Zosuquidar + Bortezomib = compound: O[C@@H](COc1cccc2ncccc12)CN1CCN([C@@H]2c3ccccc3[C@@H]3[C@H](c4ccccc42)C3(F)F)CC1 [Zosuquidar] + CC(C)C[C@H](NC(=O)[C@H](Cc1ccccc1)NC(=O)c1cnccn1)B(O)O [Bortezomib] (partner 0.002 µM)
Outline: as §1

Cell Line	relative viability (Kobe2602 + Decitabine; first compound 0.2 µM)	relative viability (Kobe2602 + Decitabine; first compound 0.6325 µM)	relative viability (Kobe2602 + Decitabine; first compound 2 µM)	relative viability (Kobe2602 + Decitabine; first compound 6.325 µM)	relative viability (Kobe2602 + Decitabine; first compound 20 µM)	relative viability (Cabozantinib + Dasatinib; first compound 0.02 µM)	relative viability (Cabozantinib + Dasatinib; first compound 0.06325 µM)	relative viability (Cabozantinib + Dasatinib; first compound 0.2 µM)	relative viability (Cabozantinib + Dasatinib; first compound 0.6325 µM)	relative viability (Cabozantinib + Dasatinib; first compound 2 µM)	relative viability (Zosuquidar + Trametinib; first compound 0.01 µM)	relative viability (Zosuquidar + Trametinib; first compound 0.03162 µM)	relative viability (Zosuquidar + Trametinib; first compound 0.1 µM)	relative viability (Zosuquidar + Trametinib; first compound 0.3162 µM)	relative viability (Zosuquidar + Trametinib; first compound 1 µM)	relative viability (Zosuquidar + Bortezomib; first compound 0.01 µM)	relative viability (Zosuquidar + Bortezomib; first compound 0.03162 µM)	relative viability (Zosuquidar + Bortezomib; first compound 0.1 µM)	relative viability (Zosuquidar + Bortezomib; first compound 0.3162 µM)	relative viability (Zosuquidar + Bortezomib; first compound 1 µM)
NCI-H3122	0.46	0.496	0.471	0.402	0.391	0.714	0.941	0.836	0.78	0.83	0.232	0.258	0.238	0.222	0.211	0.942	0.93	0.979	1.04	0.996
HCC-44	0.993	0.894	0.897	0.896	0.91	–	–	–	–	–	1.01	0.999	0.96	1.09	1.13	0.872	0.949	0.885	0.952	0.864
HCC-78	0.65	0.711	0.6	0.724	0.727	–	0.431	0.185	0.195	0.217	0.799	–	–	1	0.759	0.582	0.392	–	0.625	0.428
COR-L23	0.455	0.462	0.409	0.468	0.515	0.537	0.425	0.466	0.452	0.36	0.573	0.639	0.507	0.811	0.505	0.925	0.969	0.893	0.877	1.08
NCI-H2009	0.358	0.414	0.405	0.394	0.372	0.289	0.298	0.267	0.217	0.201	0.273	0.208	0.239	0.285	0.263	0.98	0.917	0.737	1.16	0.966
NCI-H322M	0.707	0.72	0.693	0.741	0.718	0.259	0.271	0.238	0.264	0.26	0.52	0.586	0.555	0.54	0.427	1.27	1.27	0.827	1.17	1.12
NCI-H2228	–	–	–	–	–	0.531	0.624	0.471	0.472	0.55	0.438	0.441	0.423	0.57	0.505	1.06	1.02	0.634	1.14	1.17
NCI-H358	0.222	0.219	0.225	0.177	0.244	0.15	0.194	0.12	0.197	0.19	0.133	0.132	0.155	0.125	0.125	–	–	–	–	–
NCI-H2342	0.846	0.749	0.68	0.658	0.728	0.291	0.386	0.308	0.316	0.311	0.805	0.975	0.757	0.873	0.957	–	–	–	–	–
